# Experimental data: patent US12691092B2, “Method for reducing cutaneous skin scarring by pre-emptive priming and compounds and compositions for its implementation” (SOS SCIENCE OF SKIN LTD, priority 2020, dated 2026)
# What was measured:
# Assay type in all cases: in vivo, human
# MCT and MCC = assay: QRT-PCR of MCT and MCC in scar biopsies; conditions: week 4, all groups, p<0.05
# Method: A double-blind randomized placebo-controlled trial was conducted using a temporal punch-biopsy model. The punch biopsy and topical application methodology used in the study is illustrated in FIG. 1, namely showing pre-injury pre-emptive priming (7-days), pre-injury pre-emptive priming (3-days), day of injury (immediate application on day 0), post-injury (delayed 2 weeks post injury) including biopsy time points and time of topical applications. Each group applied both placebo and topical formulations twice daily for the duration of the study until week 8, with only the starting time point differing between groups Participants were split into 4 groups (n=10 in each group) in order to compare different modes (timings) of commencement of the topical application: • Group-1: Pre-emptive Priming (7-days): pre-injury • Group-2: Pre-emptive Priming (3-days): pre-injury • Group-3: Immediate (0-day): day-of-injury • Group-4: Delayed (14-days): post-injury Clinical quantitative devices were used to objectively monitor cutaneous healing at weekly intervals and punch biopsies were performed on day 0 (uninjured skin) and at weeks 4 and 8 for protein and gene expression analyses. […] Excisional skin biopsies in upper arms were evaluated weekly with multiple quantitative devices over an 8-week period. […] MCT, MCC and CKit quantitative measurements are expressed in mm^2.
# Hemeoxygenase-1 (HO-1) = assay: HO-1 immunohistochemical marker (anti-oxidant effect); conditions: week 4, all groups, p<0.01
# Method: (§1) A double-blind randomized placebo-controlled trial was conducted using a temporal punch-biopsy model. The punch biopsy and topical application methodology used in the study is illustrated in FIG. 1, namely showing pre-injury pre-emptive priming (7-days), pre-injury pre-emptive priming (3-days), day of injury (immediate application on day 0), post-injury (delayed 2 weeks post injury) including biopsy time points and time of topical applications. Each group applied both placebo and topical formulations twice daily for the duration of the study until week 8, with only the starting time point differing between groups Participants were split into 4 groups (n=10 in each group) in order to compare different modes (timings) of commencement of the topical application: • Group-1: Pre-emptive Priming (7-days): pre-injury • Group-2: Pre-emptive Priming (3-days): pre-injury • Group-3: Immediate (0-day): day-of-injury • Group-4: Delayed (14-days): post-injury Clinical quantitative devices were used to objectively monitor cutaneous healing at weekly intervals and punch biopsies were performed on day 0 (uninjured skin) and at weeks 4 and 8 for protein and gene expression analyses. […] Excisional skin biopsies in upper arms were evaluated weekly with multiple quantitative devices over an 8-week period. […]
# VEGF-A = assay: Gene expression analysis of VEGF-A; conditions: week 4, groups 1-2 and 4, p<0.05
# Method: as §1
# mast cells (MC) = assay: Mast cell identification by MCT, MCC and CKit immunohistochemical markers in scar biopsies (double-blind placebo-controlled punch-biopsy trial)
# Method: A double-blind randomized placebo-controlled trial was conducted using a temporal punch-biopsy model. The punch biopsy and topical application methodology used in the study is illustrated in FIG. 1, namely showing pre-injury pre-emptive priming (7-days), pre-injury pre-emptive priming (3-days), day of injury (immediate application on day 0), post-injury (delayed 2 weeks post injury) including biopsy time points and time of topical applications. Each group applied both placebo and topical formulations twice daily for the duration of the study until week 8, with only the starting time point differing between groups Participants were split into 4 groups (n=10 in each group) in order to compare different modes (timings) of commencement of the topical application: • Group-1: Pre-emptive Priming (7-days): pre-injury • Group-2: Pre-emptive Priming (3-days): pre-injury • Group-3: Immediate (0-day): day-of-injury • Group-4: Delayed (14-days): post-injury Clinical quantitative devices were used to objectively monitor cutaneous healing at weekly intervals and punch biopsies were performed on day 0 (uninjured skin) and at weeks 4 and 8 for protein and gene expression analyses. In the trial, topical EGCG and a placebo topical were applied twice daily for the duration of the trial until week 8 with only the starting time points differing between groups. Clinical and experimental analysis involved use of non-invasive devices as well as protein and gene studies. Excisional skin biopsies in upper arms were evaluated weekly with multiple quantitative devices over an 8-week period. Immunohistochemical analyses, mRNA sequencing and QRT-PCR were performed on tissue biopsies. MC identification was performed using mast cell tryptase (MCT), mast cell chymase (MCC) and CKit markers. […] The percentage differences between the change in placebo and EGCG for group-1 compared to group-2 was 58% (p=0.002), group-3 was 53% (p=0.003) and group-4 was 52% (p=0.005). […] The greatest difference was in group-1 compared to group-3 by 26% (p=0.02) and group-4 by 27% (p=0.02). Subsequent QRT-PCR analysis further confirmed down-regulation of MCT and MCC (p<0.05) in EGCG-treated samples at week-4 in all groups. MCT, MCC and CKit quantitative measurements are expressed in mm^2.
# [1] = weeks 4 and 8, all groups, p<0.01, topical twice daily
smiles,measurement,setting,value
"O=C(OC1Cc2c(O)cc(O)cc2OC1c1cc(O)c(O)c(O)c1)c1cc(O)c(O)c(O)c1 (single isomer, unassigned; (-)) [EGCG, (-)-epigallocatechin-3-gallate]","QRT-PCR MCC expression, EGCG-treated samples",MCT and MCC,down-regulation
same,"QRT-PCR MCT expression, EGCG-treated samples",MCT and MCC,down-regulation
same,"HO-1 levels, EGCG-treated samples compared to placebo",Hemeoxygenase-1 (HO-1),significantly higher
same,"VEGF-A gene expression, EGCG-treated samples compared to placebo",VEGF-A,significant reductions
same,Resident mast cell population in primed uninjured skin,mast cells (MC); primed uninjured skin prior to injury,reduces the resident mast cell population
same,MCC: larger difference of group-2 than group-4,"mast cells (MC); week 4, 3-day priming vs delayed, p=0.009",29%
same,"MCT: percentage difference between the change in placebo and EGCG, group-1 compared to group-2","mast cells (MC); week 4, 7-day pre-injury priming vs 3-day priming, p=0.002",58%
same,"MCT: percentage difference between the change in placebo and EGCG, group-1 compared to group-4","mast cells (MC); week 4, 7-day pre-injury priming vs delayed (14 days), p=0.005",52%
same,"MCT: percentage difference between the change in placebo and EGCG, group-1 compared to group-3","mast cells (MC); week 4, 7-day pre-injury priming vs immediate (day 0), p=0.003",53%
same,MCC: greater difference of group-1 than group-4,"mast cells (MC); week 4, 7-day priming vs delayed, p=0.001",41%
same,CKit: difference of group-1 compared to group-4,"mast cells (MC); week 4, 7-day priming vs delayed, p=0.02",27%
same,MCC: greater difference of group-1 than group-3,"mast cells (MC); week 4, 7-day priming vs immediate, p=0.01",29%
same,CKit: difference of group-1 compared to group-3,"mast cells (MC); week 4, 7-day priming vs immediate, p=0.02",26%
same,"CKit positive cells, EGCG-treated scars compared to placebo-treated scars",mast cells (MC); [1],significantly fewer positive cells
same,"MCC positive cells, EGCG-treated scars compared to placebo-treated scars",mast cells (MC); [1],significantly fewer positive cells
same,"MCT positive cells, EGCG-treated scars compared to placebo-treated scars",mast cells (MC); [1],significantly fewer positive cells
